The results in this text go back to patent US4895835A, “Muramyl peptide derivatives and use thereof” (priority 1987, dated 1990).

SMILES strings stand for the structures.

Experiment [1] has as its system influenza HA vaccine (A/Bangkok/10/83 strain, H1N1). Kind of experiment: Enhancing effect on influenza HA vaccine (adjuvant activity), ELISA. The experiment is classed as in vivo. The note with it: CDF1 mouse, compound (100 μg/ml) mixed with influenza HA vaccine (100 CCA/ml). The procedure: (3) Enhancing effect on influenza HA vaccine (adjuvant activity)
A compound of the invention was dissolved or suspended in physiological saline (100 μg/ml). Separately, influenza HA vaccine (A/Bangkok/10/83 strain, H1N1) was dissolved in physiological saline (100 CCA/ml). These two solutions were mixed in an equivalent weight to make the test solution. Control is a solution excluded the compound of the invention from the test solution.
The test solution was administered into CDF1 mouse in a similar way to that of the test of enhancing action for hepatitis vaccine as mentioned above, to obtain primary and secondary response sera.
On the technique in general: An ELISA detects its analyte on a solid surface through an enzyme-linked reagent.

In a further experiment the test system is BCG killed vaccine. The experiment can be described thus: Enhancing action on BCG vaccine (adjuvant activity), 24 hours foot-pad test. It is filed as in vivo. The note with it: ICR mouse; s.c. 0.2 ml mixture of BCG killed vaccine (100 μg/ml) and compound in Freund's incomplete adjuvant (1000 μg/ml); tuberculin 10 μg after 14 days; measured after 24 hours. The procedure:
(1) Enhancing action on BCG vaccine (adjuvant activity)
0.2 ml of an equivalent weight mixture of a solution of BCG killed vaccine in physiological saline (100 μg/ml) and a solution of a compound of the invention in Freund's incomplete adjuvant (1000 μg/ml) was subcutaneously injected to the back of ICR mouse (one group consisting of 7 mice). After 14 days, 10 μg of tuberculin was intradermally injected into the hind foot-pad. Swelling of the foot-pad was measured after 24 hours (24 hours foot-pad test).
The control is the above mentioned mixture excluded a compound of the invention.

A short description of experiment [2]: Stimulation effect on antibody producing cells (plaque numbers, Cunningham technique). The note with it: for Plaque No.: ICR mouse, SRBC i.v. and compound 500 μg/ml, 0.2 ml i.v., splenic cells after 4 days; for Stimulation index: plaque number relative to control (saline) = 1. It is filed as in vivo, ICR mouse. How it is done:
(5) Stimulation effect on anti-body precluding cells
A solution of sheep […] (SRBC) in phosphate buffered physiological saline (5×10^7 cells/ml), 0.2 ml was injected into tail intravenous vein of ICR mouse (7 mice per group). At the same time, a solution of a compound of the invention in physiological saline (500 μg/ml), 0.2 ml was similarly injected. After 4 days, lien was picked up from the treated mouse to obtain splenic cells. Plaque numbers were measured by Cunningham technique.

A further experiment relates to E. coli (JC-2). Kind of experiment: Phylactic effect, E. coli infection. The conditions noted are these: ICR mouse; compound 500 μg/ml, 0.2 ml i.p. one day before infection i.p. 1×10^7 /mouse; after 7 days of infection. The experiment is classed as in vivo. How it is done: (§1) A solution of a compound of the invention in physiological saline (500 μg/ml), 0.2 ml was intraperitoneally injected into ICR mouse (20 mice per group). After a day, E. coli (JC-2) and Psud. aeruginosa (NCTC 10490) were incubated through intraperitoneal route so as to be at concentration of 1×10^7 /mouse. Survival rate after 7 days of infection was measured.

The next experiment has as its system Meth A fibrosarcomas. Kind of experiment: Antitumour effect, Meth A fibrosarcoma. The experiment is classed as in vivo. The conditions noted are these: BALB/C mouse; s.c. 0.2 ml mixture of Meth A cells (1×10^6 cells/ml) and compound (1,000 μg/ml); after 35 days. How it is done: Meth A fibrosarcomas were suspended in phosphate buffered physiological saline (1×10^6 cells/ml). Separately, a solution of a compound of the invention in physiological saline was prepared (1,000 μg/ml). An equivalent weight mixture of these two solution (0.2 ml) was subcutaneously injected into BALB/C mouse (20 mice per group). Survival rate after 35 days was measured.

Experiment [3] has as its system Psud. aeruginosa (NCTC 10490). The experiment can be described thus: Phylactic effect, Psud. aeruginosa infection. It is filed as in vivo. The conditions noted are these: ICR mouse; compound 500 μg/ml, 0.2 ml i.p. one day before infection i.p. 1×10^7 /mouse; after 7 days of infection. How it is done:
as §1

Experiment [4] deals with B type hepatitis vaccine (HBs). Kind of experiment: Enhancing effect on hepatitis vaccine (adjuvant activity), IgG antibody by ELISA. The experiment is classed as in vivo. The conditions noted are these: CDF1 mouse; for Anti HBs-ELISA unit, Primary response serum: i.p. 0.2 ml compound (100 μg/ml) mixed with HBs vaccine, serum at 3 weeks; for Anti HBs-ELISA unit, Secondary response serum: second i.p. injection of 0.2 ml test solution, serum at 2 weeks. How it is done: (2) Enhancing effect on hepatitis vaccine (adjuvant activity)
A compound of the invention was dissolved or suspended in physiological saline (100 μg/ml), and mixed with a solution of B type hepatitis vaccine (HBs) in physiological saline (100 μg/m) at an equivalent weight ratio to obtain the test solution. A solution excluded the compound of the invention from the test solution was used as control.
The test solution (0.2 ml) was intraperitoneally injected into CDF1 mouse (one group consisting of 10 mice). At 3 weeks after the administration, a blood was taken from the intravenous vein in eyeground of each the mice and centrifuged to obtain serum (primary response serum). Further, 0.2 ml of the test solution was again intraperitoneally injected into each mice, and at 2 weeks stage, serum was separated in the similar way (secondary response serum).
Value for IgG antibody against B type hepatitis virus of the resulting serum was measured by ELISA method.

Experiment [5] relates to leukemia cells of L-1210 mouse. Kind of experiment: Activation for macrophages: cytostatic rate of intraperitoneal macrophages on leukemia cells. It is filed as in vivo. The conditions noted are these: CDF1 mouse i.p. 500 μg/ml, 0.2 ml; macrophages collected after 4 days; macrophages:L-1210 cells 20:1; 72 hours. How it is done: (4) Activation for macrophages
A test solution of a compound of the invention in physicological saline (500 μg/ml, 0.2 ml) was intraperioneally injected into CDF1 mouse (one group consisting of mice). Intraperioneal macrophages which were collected after 4 days and leukemia cells of L-1210 mouse were mixed at the cell ratio of 20 and 1. Each 200 μl of the mixture was put on a microplate having 96 holes. After 72 hours, numbers of cells in each holes were counted, and cytostatic rate of the mixture was measured.

For `CCCCCCCCCCCCCC(=O)O[C@H](CCCCCCCCCCC)CC(=O)OC[C@H]1O[C@@H](S)[C@H](NC(C)=O)[C@@H](O[C@H](C)C(=O)N[C@@H](C)C(=O)N[C@H](CCC(=O)OC)C(N)=O)[C@@H]1O` [Example 8, N-[[2-O-{2-Acetamido-2,3-dideoxy-6-O-[(3R)-3-tetradecanoyloxytetradecanoyl]-1-thio-β-D-glucopyranos-3-yl}-D-lactoyl]]-L-alanyl-D-isoglutamine methyl ester], in experiment [1], the “Anti-influenza HA virus ELISA unit, Primary response serum” value is listed as 2,100 ELISA unit and the “Anti-influenza HA virus ELISA unit, Secondary response serum” value is 22,000 ELISA unit. Also, the “Swelling of Foot-pad” value in the experiment with BCG killed vaccine is 51.8 ± 11.0 × 0.01 mm. In experiment [2], the “Plaque No.” value is recorded as 8.63 ± 7.9 × 10^3 and the Stimulation index amounted to 1.8. Further, in the experiment with E. coli (JC-2), the “Survival rate, E. coli” value amounted to 35%. Moreover, the Survival rate in the experiment with Meth A fibrosarcomas stood at 5%. Moreover, the “Survival rate, Psud. aeruginosa” value in experiment [3] came to 20%. For the same compound, in experiment [4], the “Anti HBs-ELISA unit, Primary response serum” value was 2,200 ELISA unit and the “Anti HBs-ELISA unit, Secondary response serum” value was 105,000 ELISA unit. Further, the Cytostatic rate in experiment [5] worked out at 31.6 ± 1.6%.
In the case of `CCCCCCCCCCCCCCCC(=O)O[C@H](CCCCCCCCCCC)CC(=O)OC[C@H]1O[C@@H](S)[C@H](NC(C)=O)[C@@H](O[C@H](C)C(=O)N[C@@H](C)C(=O)N[C@H](CCC(=O)OC)C(N)=O)[C@@H]1O` [Example 9, N-[[2-O-{2-Acetamido-2,3-dideoxy-6-O-[(3R)-3-hexadodecanoyloxytetradecanoyl]-1-thio-β-D-glucopyranos-3-yl}-D-lactoyl]]-L-alanyl-D-isoglutamine methyl ester], in experiment [1], the “Anti-influenza HA virus ELISA unit, Primary response serum” value was 1,900 ELISA unit and the “Anti-influenza HA virus ELISA unit, Secondary response serum” value was 25,000 ELISA unit. The “Swelling of Foot-pad” value in the experiment on BCG killed vaccine is 49.1 ± 12.0 × 0.01 mm. In experiment [2], the “Plaque No.” value is on record as 11.00 ± 10.1 × 10^3 and the Stimulation index was 2.3. The “Survival rate, E. coli” value with E. coli (JC-2) is 40%. For the same compound, in the experiment on Meth A fibrosarcomas, the Survival rate amounted to 5%. In addition, the “Survival rate, Psud. aeruginosa” value in experiment [3] was 15%. In experiment [4], the “Anti HBs-ELISA unit, Primary response serum” value is 3,400 ELISA unit and the “Anti HBs-ELISA unit, Secondary response serum” value is given as 150,000 ELISA unit. In experiment [5], this compound displayed a Cytostatic rate of 38.2 ± 2.2%.
